# According to ChEMBL document CHEMBL5291721, “A preclinical secondary pharmacology resource illuminates target-adverse drug reaction associations of marketed drugs” (Nat Commun, 2023):
# Assays:
# Estrogen receptor = molecular target: T1, Estrogen receptor (Homo sapiens, UniProt P03372)
# T1 sequence (P03372 whole entry): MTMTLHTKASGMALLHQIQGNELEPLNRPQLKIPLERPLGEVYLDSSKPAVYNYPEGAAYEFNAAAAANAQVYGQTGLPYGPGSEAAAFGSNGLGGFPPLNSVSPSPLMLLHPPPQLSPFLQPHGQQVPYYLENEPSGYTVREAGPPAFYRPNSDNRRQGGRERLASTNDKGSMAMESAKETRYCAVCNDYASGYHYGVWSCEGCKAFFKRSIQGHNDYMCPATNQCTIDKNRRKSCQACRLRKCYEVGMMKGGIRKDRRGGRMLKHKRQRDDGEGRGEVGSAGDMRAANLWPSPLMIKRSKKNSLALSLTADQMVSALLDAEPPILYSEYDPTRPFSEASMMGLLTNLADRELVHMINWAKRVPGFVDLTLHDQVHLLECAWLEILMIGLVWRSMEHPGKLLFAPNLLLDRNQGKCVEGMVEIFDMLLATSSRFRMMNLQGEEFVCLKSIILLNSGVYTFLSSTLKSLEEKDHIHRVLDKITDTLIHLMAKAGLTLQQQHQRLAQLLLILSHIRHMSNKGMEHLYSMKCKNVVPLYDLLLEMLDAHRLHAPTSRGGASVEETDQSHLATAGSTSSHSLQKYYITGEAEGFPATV
# [1] = molecular target: T2, Peroxisome proliferator-activated receptor gamma (Homo sapiens, UniProt P37231); format: functional
# T2 sequence (P37231 whole entry): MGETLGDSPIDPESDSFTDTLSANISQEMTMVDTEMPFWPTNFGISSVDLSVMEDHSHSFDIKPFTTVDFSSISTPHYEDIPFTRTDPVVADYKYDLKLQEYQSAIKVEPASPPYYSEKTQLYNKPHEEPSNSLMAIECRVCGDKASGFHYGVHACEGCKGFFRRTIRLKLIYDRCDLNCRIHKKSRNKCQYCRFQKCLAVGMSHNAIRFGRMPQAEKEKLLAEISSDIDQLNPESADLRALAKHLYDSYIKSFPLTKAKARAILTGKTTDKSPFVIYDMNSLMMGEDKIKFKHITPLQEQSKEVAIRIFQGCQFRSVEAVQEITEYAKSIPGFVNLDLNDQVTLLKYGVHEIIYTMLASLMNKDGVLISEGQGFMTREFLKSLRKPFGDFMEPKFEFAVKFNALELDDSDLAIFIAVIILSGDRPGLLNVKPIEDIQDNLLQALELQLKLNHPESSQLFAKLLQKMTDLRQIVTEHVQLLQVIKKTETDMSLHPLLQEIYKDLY
# Glucocorticoid receptor = molecular target: T3, Glucocorticoid receptor (Homo sapiens, UniProt P04150); format: functional
# T3 sequence (P04150 whole entry): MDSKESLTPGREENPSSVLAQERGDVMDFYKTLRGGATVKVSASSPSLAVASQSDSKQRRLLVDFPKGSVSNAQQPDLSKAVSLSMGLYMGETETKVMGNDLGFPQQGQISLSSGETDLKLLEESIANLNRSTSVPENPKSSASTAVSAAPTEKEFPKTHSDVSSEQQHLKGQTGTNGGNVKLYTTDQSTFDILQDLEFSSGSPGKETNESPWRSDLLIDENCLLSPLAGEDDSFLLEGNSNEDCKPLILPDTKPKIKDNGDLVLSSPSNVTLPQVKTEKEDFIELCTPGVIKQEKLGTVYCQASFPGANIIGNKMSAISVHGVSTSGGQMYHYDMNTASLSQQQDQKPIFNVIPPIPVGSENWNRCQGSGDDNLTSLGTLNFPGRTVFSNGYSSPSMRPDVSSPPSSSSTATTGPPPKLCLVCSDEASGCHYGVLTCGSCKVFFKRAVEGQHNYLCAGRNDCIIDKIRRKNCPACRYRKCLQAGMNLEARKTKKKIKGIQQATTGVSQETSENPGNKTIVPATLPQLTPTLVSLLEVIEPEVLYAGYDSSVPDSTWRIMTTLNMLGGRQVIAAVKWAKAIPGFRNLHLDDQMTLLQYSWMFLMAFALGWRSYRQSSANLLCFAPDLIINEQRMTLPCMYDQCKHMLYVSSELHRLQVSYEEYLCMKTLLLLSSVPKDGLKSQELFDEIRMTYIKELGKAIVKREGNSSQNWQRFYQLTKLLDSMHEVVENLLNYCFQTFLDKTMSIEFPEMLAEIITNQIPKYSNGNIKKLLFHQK
# [2] = molecular target: Epidermal growth factor receptor (Homo sapiens, UniProt P00533); format: functional
# Sequence of Epidermal growth factor receptor (P00533 whole entry): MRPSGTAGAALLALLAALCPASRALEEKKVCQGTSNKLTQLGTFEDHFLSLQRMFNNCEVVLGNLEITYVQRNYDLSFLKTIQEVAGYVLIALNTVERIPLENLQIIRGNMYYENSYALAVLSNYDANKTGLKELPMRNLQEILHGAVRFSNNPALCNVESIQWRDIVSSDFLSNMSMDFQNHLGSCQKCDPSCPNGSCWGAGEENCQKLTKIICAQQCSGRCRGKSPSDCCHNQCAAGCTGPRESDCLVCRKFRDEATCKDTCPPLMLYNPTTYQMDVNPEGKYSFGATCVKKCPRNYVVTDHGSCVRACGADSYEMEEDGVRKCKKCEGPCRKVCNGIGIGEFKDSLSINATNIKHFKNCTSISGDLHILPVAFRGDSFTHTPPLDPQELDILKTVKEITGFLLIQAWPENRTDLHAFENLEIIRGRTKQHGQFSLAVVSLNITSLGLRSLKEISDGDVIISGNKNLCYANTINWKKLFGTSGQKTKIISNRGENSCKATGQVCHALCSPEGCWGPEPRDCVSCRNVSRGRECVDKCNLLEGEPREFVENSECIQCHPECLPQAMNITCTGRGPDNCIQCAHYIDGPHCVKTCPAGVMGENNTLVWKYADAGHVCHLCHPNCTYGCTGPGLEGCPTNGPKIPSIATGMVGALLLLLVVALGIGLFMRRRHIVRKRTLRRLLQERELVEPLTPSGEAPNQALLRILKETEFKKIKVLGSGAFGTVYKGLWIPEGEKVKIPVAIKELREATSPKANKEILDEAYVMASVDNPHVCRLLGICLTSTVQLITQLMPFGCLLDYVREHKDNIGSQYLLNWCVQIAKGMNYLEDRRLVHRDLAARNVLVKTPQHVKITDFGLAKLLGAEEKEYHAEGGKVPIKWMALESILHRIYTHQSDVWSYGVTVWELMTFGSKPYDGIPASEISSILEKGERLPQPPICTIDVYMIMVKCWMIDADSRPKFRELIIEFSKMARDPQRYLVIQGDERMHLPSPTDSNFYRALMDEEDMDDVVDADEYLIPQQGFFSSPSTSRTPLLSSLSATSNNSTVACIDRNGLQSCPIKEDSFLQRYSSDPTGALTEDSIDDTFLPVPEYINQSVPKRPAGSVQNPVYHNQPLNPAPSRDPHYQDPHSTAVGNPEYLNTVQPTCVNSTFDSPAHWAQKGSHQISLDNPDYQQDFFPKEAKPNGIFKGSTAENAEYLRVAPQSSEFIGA
# Progesterone receptor = molecular target: T4, Progesterone receptor (Homo sapiens, UniProt P06401)
# T4 sequence (P06401 whole entry): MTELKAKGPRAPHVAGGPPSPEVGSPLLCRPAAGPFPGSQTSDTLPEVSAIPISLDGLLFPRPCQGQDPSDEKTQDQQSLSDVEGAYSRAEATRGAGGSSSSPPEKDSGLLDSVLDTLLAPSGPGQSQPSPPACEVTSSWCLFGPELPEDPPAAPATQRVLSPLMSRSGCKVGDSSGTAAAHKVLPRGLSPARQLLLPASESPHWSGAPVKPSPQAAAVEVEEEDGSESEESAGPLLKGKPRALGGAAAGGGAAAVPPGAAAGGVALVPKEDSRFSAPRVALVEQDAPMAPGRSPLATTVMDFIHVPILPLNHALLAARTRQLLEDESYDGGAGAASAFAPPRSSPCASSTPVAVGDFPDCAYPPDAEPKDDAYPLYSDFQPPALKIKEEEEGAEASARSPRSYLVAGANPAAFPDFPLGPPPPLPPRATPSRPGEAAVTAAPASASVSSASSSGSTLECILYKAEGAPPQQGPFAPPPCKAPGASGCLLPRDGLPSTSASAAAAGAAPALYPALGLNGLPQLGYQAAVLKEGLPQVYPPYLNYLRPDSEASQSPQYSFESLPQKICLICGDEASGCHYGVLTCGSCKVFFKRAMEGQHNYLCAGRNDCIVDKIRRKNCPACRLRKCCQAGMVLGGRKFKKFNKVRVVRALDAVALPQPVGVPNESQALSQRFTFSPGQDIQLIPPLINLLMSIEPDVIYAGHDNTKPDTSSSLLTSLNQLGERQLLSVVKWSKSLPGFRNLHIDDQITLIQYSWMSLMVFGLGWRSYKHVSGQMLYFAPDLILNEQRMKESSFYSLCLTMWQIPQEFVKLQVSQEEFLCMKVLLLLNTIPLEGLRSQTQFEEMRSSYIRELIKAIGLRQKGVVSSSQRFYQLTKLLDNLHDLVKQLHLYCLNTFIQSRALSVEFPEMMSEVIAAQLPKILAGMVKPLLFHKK
# Further: assay procedure not described here.
smiles,measurement,setting,value
CCOC(=O)Nc1ccc(NCc2ccc(F)cc2)nc1N [FLUPIRTINE],AC50,Estrogen receptor,3 µM
N[C@@H](Cc1cc(I)c(Oc2cc(I)c(O)c(I)c2)c(I)c1)C(=O)O [LEVOTHYROXINE],AC50,[1],> 30 µM
CN(C)CCc1c[nH]c2ccc(CS(=O)(=O)N3CCCC3)cc12 [ALMOTRIPTAN],AC50,Estrogen receptor,> 30 µM
C[C@@H](O)[C@H]1C(=O)N2C(C(=O)O)=C(SCCN=CN)C[C@H]12 [IMIPENEM ANHYDROUS],AC50,[1],> 300 µM
same,AC50,Glucocorticoid receptor,> 300 µM
same,AC50,[2],> 300 µM
c1cnc2cc3c(cc2n1)[C@@H]1CNC[C@H]3C1 [VARENICLINE],AC50,[1],> 30 µM
same,AC50,[2],> 30 µM
CC(C)/N=c1\cc2n(-c3ccc(Cl)cc3)c3ccccc3nc-2cc1Nc1ccc(Cl)cc1 [CLOFAZIMINE],AC50,Glucocorticoid receptor,> 30 µM
same,AC50,Estrogen receptor,0.13 µM
CN(C)CCC=C1c2ccccc2CCc2ccccc21 [AMITRIPTYLINE],AC50,Progesterone receptor,> 30 µM
same,AC50,Estrogen receptor,> 30 µM
O=C(O)COC(=O)Cc1ccccc1Nc1c(Cl)cccc1Cl [ACECLOFENAC],AC50,Progesterone receptor,> 30 µM
same,AC50,Estrogen receptor,> 30 µM
CC(=O)SCC(Cc1ccccc1)C(=O)NCC(=O)OCc1ccccc1 (stereo not drawn) [RACECADOTRIL],AC50,Progesterone receptor,> 30 µM
same,AC50,Glucocorticoid receptor,> 30 µM
same,AC50,Estrogen receptor,> 30 µM
CC(C)NCC(O)COc1ccc(CC(N)=O)cc1 (stereo not drawn) [ATENOLOL],AC50,Estrogen receptor,> 30 µM
CO[C@@H]1[C@@H](OC(N)=O)[C@@H](O)[C@H](Oc2ccc3c(O)c(NC(=O)c4ccc(O)c(CC=C(C)C)c4)c(=O)oc3c2C)OC1(C)C [NOVOBIOCIN],AC50,[1],> 30 µM
same,AC50,Glucocorticoid receptor,> 30 µM
same,AC50,[2],> 30 µM
CN1CC2c3ccccc3Oc3ccc(Cl)cc3C2C1 (stereo not drawn) [ASENAPINE],AC50,[1],> 30 µM
same,AC50,Glucocorticoid receptor,> 30 µM
same,AC50,[2],> 30 µM
NCCCCCC(=O)O [AMINOCAPROIC ACID],AC50,Estrogen receptor,> 10 µM
O=C(O)[C@H]1/C(=C/CO)O[C@@H]2CC(=O)N21 [CLAVULANIC ACID],AC50,[1],> 30 µM
same,AC50,Glucocorticoid receptor,> 30 µM
O=C1[C@@H]2[C@H]3CC[C@H](C3)[C@@H]2C(=O)N1C[C@@H]1CCCC[C@H]1CN1CCN(c2nsc3ccccc23)CC1 [LURASIDONE],AC50,[1],> 30 µM
same,AC50,Glucocorticoid receptor,> 10 µM
same,AC50,[2],> 30 µM
C[C@H](Cn1cnc2c(N)ncnc21)OCP(=O)(O)O [TENOFOVIR ANHYDROUS],AC50,Estrogen receptor,> 30 µM
CC(=O)Oc1ccccc1C(=O)O [ASPIRIN],AC50,Progesterone receptor,> 30 µM
same,AC50,Estrogen receptor,15.1 µM
C[C@H](CCC(=O)O)[C@H]1CC[C@H]2[C@@H]3[C@H](O)C[C@@H]4C[C@H](O)CC[C@]4(C)[C@H]3CC[C@]12C [CHENODIOL],AC50,[1],> 30 µM
same,AC50,[2],> 30 µM
CN(C)CCCC1(c2ccc(F)cc2)OCc2cc(C#N)ccc21 (stereo not drawn) [CITALOPRAM],AC50,Progesterone receptor,> 30 µM
same,AC50,Estrogen receptor,> 30 µM
NCCCNCCSP(=O)(O)O [AMIFOSTINE],AC50,Estrogen receptor,> 30 µM
CCOC(=O)[C@H](CCc1ccccc1)N[C@@H](C)C(=O)N1Cc2ccccc2C[C@H]1C(=O)O,AC50,Progesterone receptor,> 30 µM
same,AC50,Estrogen receptor,> 30 µM
C[C@]12CCC(=O)C=C1CC[C@H]1[C@@H]3CC[C@](O)(C(=O)CO)[C@@]3(C)C[C@H](O)[C@@]12F [FLUDROCORTISONE],AC50,Progesterone receptor,> 30 µM
same,AC50,Estrogen receptor,> 30 µM
CC[N+](CC)(CCNC(=O)C(=O)NCC[N+](CC)(CC)Cc1ccccc1Cl)Cc1ccccc1Cl [AMBENONIUM],AC50,Estrogen receptor,> 30 µM
CC(C)C[C@H](NC(=O)[C@H](Cc1ccccc1)NC(=O)c1cnccn1)B(O)O [BORTEZOMIB],AC50,Estrogen receptor,> 30 µM
CN(C)CCN(Cc1ccccc1)c1ccccn1 [TRIPELENNAMINE],AC50,Estrogen receptor,> 10 µM
CCCCCCCC/C=C\CCCCCCCC(=O)O [OLEIC ACID],AC50,[1],> 300 µM
NCC1(CC(=O)O)CCCCC1 [GABAPENTIN],AC50,[1],> 30 µM
same,AC50,Progesterone receptor,> 30 µM
same,AC50,Glucocorticoid receptor,> 30 µM
same,AC50,[2],> 30 µM
COc1cc2c(cc1OC)C1CC(=O)C(CC(C)C)CN1CC2 (stereo not drawn) [TETRABENAZINE],AC50,[1],> 30 µM
same,AC50,[2],> 30 µM
CCN(CC)CCn1c(=O)c(Cc2ccc(OC)cc2)nc2ccccc21 [CAROVERINE],AC50,Estrogen receptor,> 30 µM
C[C@H](Nc1ncnc2[nH]cnc12)c1cc2cccc(Cl)c2c(=O)n1-c1ccccc1 [DUVELISIB],AC50,[1],> 30 µM
same,AC50,Glucocorticoid receptor,> 30 µM
same,AC50,[2],> 30 µM
CC(C)(CO)c1cc2cc(NC(=O)C3(c4ccc5c(c4)OC(F)(F)O5)CC3)c(F)cc2n1C[C@@H](O)CO [TEZACAFTOR],AC50,[1],> 30 µM
same,AC50,Glucocorticoid receptor,> 30 µM
CN(C)CCOC(c1ccc(Cl)cc1)c1ccccn1 (stereo not drawn) [CARBINOXAMINE],AC50,[1],> 30 µM
same,AC50,Estrogen receptor,> 30 µM
CCOc1ccccc1OCCN[C@H](C)Cc1ccc(OC)c(S(N)(=O)=O)c1 [TAMSULOSIN],AC50,Progesterone receptor,> 30 µM
Nc1c2c(nc3ccccc13)CCCC2O (stereo not drawn) [VELNACRINE],AC50,[1],> 30 µM
same,AC50,Glucocorticoid receptor,> 30 µM
same,AC50,[2],> 30 µM
C[C@H](CS)C(=O)N1CCC[C@H]1C(=O)O [CAPTOPRIL],AC50,Progesterone receptor,> 30 µM
Cc1c(C)c2c(c(C)c1O)CCC(C)(COc1ccc(CC3SC(=O)NC3=O)cc1)O2 (stereo not drawn) [TROGLITAZONE],AC50,Progesterone receptor,> 30 µM
same,AC50,Estrogen receptor,> 30 µM
C=CC1=C(C(=O)O)N2C(=O)[C@@H](NC(=O)/C(=N\O)c3csc(N)n3)[C@H]2SC1,AC50,Progesterone receptor,> 30 µM
same,AC50,Estrogen receptor,> 30 µM
Cn1cnc2c(F)c(Nc3ccc(Br)cc3F)c(C(=O)NOCCO)cc21 [BINIMETINIB],AC50,[1],> 30 µM
same,AC50,Glucocorticoid receptor,> 30 µM
same,AC50,[2],> 30 µM
Nc1nnc(-c2cccc(Cl)c2Cl)c(N)n1 [LAMOTRIGINE],AC50,Progesterone receptor,> 30 µM
CCC[C@@]1(CCc2ccccc2)CC(O)=C([C@H](CC)c2cccc(NS(=O)(=O)c3ccc(C(F)(F)F)cn3)c2)C(=O)O1,AC50,[1],> 30 µM
same,AC50,Glucocorticoid receptor,> 30 µM
same,AC50,[2],> 30 µM
CCOCC(O)COc1ccc(NC(=O)CC[S+](C)C)cc1 (stereo not drawn),AC50,[1],> 30 µM
same,AC50,Glucocorticoid receptor,> 30 µM
